# In paper PMC12951562, “SH2scan: Mapping SH2 Domain-Ligand Binding Selectivity for Inhibitors and Degraders” (Journal of Medicinal Chemistry, 2026):
# What was measured:
# CISH = target: T1, CISH (Homo sapiens, UniProt Q9NSE2); assay: biochemical; assay type: binding
# T1 construct: the DNA-tagged SH2 domain concentrations used in this study were <0.1 nM; made in house; host or cells: HEK293 (transient transfection; unpurified extract)
# T1 sequence (Q9NSE2 82-163 limits assumed): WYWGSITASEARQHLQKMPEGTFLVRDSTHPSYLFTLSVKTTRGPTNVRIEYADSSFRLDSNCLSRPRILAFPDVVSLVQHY
# STAT3 = target: T2, STAT3 (Homo sapiens, UniProt P40763); assay: biochemical; assay type: binding; details: primary screen, 10 μM; read-out: percent of DMSO vehicle control
# T2 construct: made in house; host or cells: HEK293 (transient transfection), unpurified extract
# ZAP70(SH2dom1.dom2.) = target: T3, ZAP70(SH2dom1.dom2.) (Homo sapiens, UniProt P43403); assay: biochemical; details: read-out: percent of DMSO vehicle control
# T3 sequence (P43403 1-254 limits assumed): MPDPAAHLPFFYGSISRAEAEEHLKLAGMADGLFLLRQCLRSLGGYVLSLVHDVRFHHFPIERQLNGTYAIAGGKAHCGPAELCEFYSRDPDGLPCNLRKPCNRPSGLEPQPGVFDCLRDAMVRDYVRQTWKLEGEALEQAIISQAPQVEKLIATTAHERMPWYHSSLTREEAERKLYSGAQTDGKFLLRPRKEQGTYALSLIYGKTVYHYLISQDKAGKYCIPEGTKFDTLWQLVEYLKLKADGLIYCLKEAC
# STAT5B = target: T4, STAT5B (Homo sapiens, UniProt P51692); assay: biochemical; assay type: binding; details: primary screen, 10 μM; read-out: percent of DMSO vehicle control
# T4 construct: made in house; host or cells: HEK293 (transient transfection), unpurified extract
# T4 sequence (P51692 1-787): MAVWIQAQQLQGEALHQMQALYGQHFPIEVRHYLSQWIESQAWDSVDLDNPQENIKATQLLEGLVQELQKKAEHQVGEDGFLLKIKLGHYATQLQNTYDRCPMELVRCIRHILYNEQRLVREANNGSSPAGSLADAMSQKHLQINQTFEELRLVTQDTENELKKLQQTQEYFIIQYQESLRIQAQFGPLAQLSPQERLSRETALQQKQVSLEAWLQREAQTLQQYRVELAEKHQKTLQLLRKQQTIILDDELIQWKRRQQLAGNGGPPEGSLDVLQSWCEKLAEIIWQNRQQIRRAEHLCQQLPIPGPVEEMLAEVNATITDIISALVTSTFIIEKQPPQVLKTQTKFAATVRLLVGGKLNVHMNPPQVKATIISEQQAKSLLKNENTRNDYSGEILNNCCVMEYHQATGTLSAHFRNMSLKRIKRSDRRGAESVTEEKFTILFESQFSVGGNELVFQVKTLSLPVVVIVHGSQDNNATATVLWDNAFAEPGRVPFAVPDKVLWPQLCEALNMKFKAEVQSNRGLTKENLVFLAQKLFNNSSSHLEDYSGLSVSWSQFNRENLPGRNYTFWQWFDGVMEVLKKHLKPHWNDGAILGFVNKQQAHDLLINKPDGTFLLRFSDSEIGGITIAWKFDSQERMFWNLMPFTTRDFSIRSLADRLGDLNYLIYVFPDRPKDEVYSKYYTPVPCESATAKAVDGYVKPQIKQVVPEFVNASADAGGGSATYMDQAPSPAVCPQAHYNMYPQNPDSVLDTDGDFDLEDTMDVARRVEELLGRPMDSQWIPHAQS
# PTPN11(SH2dom.N-term.) = target: T5, PTPN11(SH2dom.N-term.) (Homo sapiens, UniProt Q06124); assay type: binding; details: primary screen, 10 μM
# T5 construct: SH2dom.N-term. denotes SH2 domain closest to N-terminus of protein; made in house; host or cells: HEK293 (transient transfection, unpurified extract)
# T5 sequence (Q06124 6-102 limits assumed): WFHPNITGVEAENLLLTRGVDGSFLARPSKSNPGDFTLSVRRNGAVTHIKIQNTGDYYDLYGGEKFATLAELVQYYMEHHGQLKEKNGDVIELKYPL
# [1] = target: T6, STAT3(D661Y)-nonphosphorylated (Homo sapiens, UniProt P40763, D661Y); assay: biochemical; assay type: binding; details: primary screen, 10 μM; read-out: percent of DMSO vehicle control
# T6 construct: made in house; host or cells: HEK293 (transient transfection), unpurified extract, dephosphorylated by endogenous phosphatases
# [2] = target: T7, STAT3(Y640F)-nonphosphorylated (Homo sapiens, UniProt P40763, Y640F); assay: biochemical; assay type: binding; details: primary screen, 10 μM; read-out: percent of DMSO vehicle control
# T7 construct: made in house; host or cells: HEK293 (transient transfection), unpurified extract, dephosphorylated by endogenous phosphatases
# SYK(SH2dom1.dom2.) = target: T8, SYK(SH2dom1.dom2.) (Homo sapiens, UniProt P43405); assay type: binding; details: primary screen, 10 μM
# T8 construct: the SH2 domains for these targets are expressed in tandem constructs; made in house; host or cells: HEK293 (transient transfection), unpurified extract
# [3] = target: T9, STAT3(S614R)-nonphosphorylated (Homo sapiens, UniProt P40763, S614R); assay: biochemical; assay type: binding; details: primary screen, 10 μM; read-out: percent of DMSO vehicle control
# T9 construct: made in house; host or cells: HEK293 (transient transfection), unpurified extract, dephosphorylated by endogenous phosphatases
# STAT5A = target: T10, STAT5A (Homo sapiens, UniProt P42229); assay: biochemical; assay type: binding; details: primary screen, 10 μM; read-out: percent of DMSO vehicle control
# T10 construct: made in house; host or cells: HEK293 (transient transfection), unpurified extract
# T10 sequence (P42229 1-794): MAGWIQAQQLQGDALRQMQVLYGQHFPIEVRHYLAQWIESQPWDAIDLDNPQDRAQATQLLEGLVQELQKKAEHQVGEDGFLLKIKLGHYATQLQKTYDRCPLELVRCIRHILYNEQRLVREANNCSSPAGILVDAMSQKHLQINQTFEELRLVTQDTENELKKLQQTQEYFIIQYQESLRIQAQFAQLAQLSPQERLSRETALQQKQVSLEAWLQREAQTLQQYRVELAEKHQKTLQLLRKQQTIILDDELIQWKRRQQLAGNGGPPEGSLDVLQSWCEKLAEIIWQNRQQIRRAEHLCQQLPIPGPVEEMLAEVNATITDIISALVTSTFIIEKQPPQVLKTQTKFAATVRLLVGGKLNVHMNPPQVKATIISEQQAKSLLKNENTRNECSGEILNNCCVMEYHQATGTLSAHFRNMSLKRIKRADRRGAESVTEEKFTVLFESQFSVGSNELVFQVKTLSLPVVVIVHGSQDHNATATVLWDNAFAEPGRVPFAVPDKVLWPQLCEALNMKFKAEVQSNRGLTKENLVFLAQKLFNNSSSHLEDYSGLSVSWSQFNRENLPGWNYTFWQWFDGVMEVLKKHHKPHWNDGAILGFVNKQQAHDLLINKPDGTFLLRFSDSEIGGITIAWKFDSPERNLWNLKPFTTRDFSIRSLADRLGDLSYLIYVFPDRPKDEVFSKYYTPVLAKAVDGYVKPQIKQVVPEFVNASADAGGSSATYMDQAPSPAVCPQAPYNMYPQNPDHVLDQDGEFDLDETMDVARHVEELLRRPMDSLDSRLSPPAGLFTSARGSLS
compound,measurement,setting,value
O=C(COc1ccc2cc(C(=O)Nc3ccccc3)ccc2c1)NCc1ccc(OP(=O)(O)O)c(OP(=O)(O)O)c1 [Stafib-1],Kd,"CISH; dose-response, read-out: KD",3.9 ± 8.5 µM
same,remaining activity at 10 µM,"CISH; primary screen, 10 μM, read-out: percent of DMSO vehicle control",1.7 ± 2.3%
same,remaining activity at 10 µM,STAT3,66.9 ± 10%
same,remaining activity at 10 µM,ZAP70(SH2dom1.dom2.),58 ± 19.5%
same,remaining activity at 10 µM,STAT5B,0%
same,percent of DMSO vehicle control,PTPN11(SH2dom.N-term.),79.2±4.6%
same,remaining activity at 10 µM,[1],157%
same,remaining activity at 10 µM,[2],75.3 ± 26%
same,percent of DMSO vehicle control,SYK(SH2dom1.dom2.),66.1±28.1%
same,remaining activity at 10 µM,[3],87.4 ± 4.6%
same,remaining activity at 10 µM,STAT5A,22 ± 26.6%
